Experiments:
[1] = In vitro glucose sensing at different glucose concentration (UPLC-MS, formation of linker-glucose); format: physicochemical; details: 0.42 mM linker, PBS pH 7.4, 37° C.
Description: The aim with the example is to evaluate the reaction rate of three different linkers at various glucose concentrations i.e. their ability to hydrolyse and react with glucose to form a linker glucose conjugate.
1.4 mg of linker 1 ((E)-N′-(3-(benzyloxy)propylidene)-4-methoxybenzohydrazide) was dissolved in 100 μL DMSO. 10 μL of the DMSO stock solution was added to 990 μL 1×PBS buffer pH 7.4, containing 1000 or 5000 equiv glucose, to give a final concentration of 0.42 mM of linker 1. The solutions were heated to 37° C. and analysed at different time points from 0 to 48 h by UPLC-MS (C18 column, acetonitrile/water/formic acid). The linker-glucose compound was analysed as percentage of the full conversion of the reaction.
1.3 mg and 1.4 mg of linker 14 ((E)-N′-(2-(benzyloxy)ethylidene)-4-methoxybenzohydrazide) and linker 15 ((E)-N′-(2-(benzyloxy)ethylidene)-2-hydroxy-4-methoxybenzohydrazide), respectively, was dissolved in 100 μL DMSO. 10 μL of each stock solution was added to 990 μL 1×PBS buffer pH 7.4 containing 1000, 5000 or 10,000 equiv glucose, to give a final linker concentration of 0.42 mM. The solutions were heated to 37° C. and analysed at different time points from 0 to 72 h by UPLC-MS (C18 column, acetonitrile/water/formic acid). The linker-glucose compounds were analysed as percentage of the full conversion of the reaction.

[2] = In vitro glucose sensing evaluation (LC-MS): reactivity of each linker towards glucose; format: physicochemical; details: phosphate buffer pH 7, 1000 equiv glucose, 37° C.
Description: The aim with this example is to evaluate the reactivity of each linker towards glucose.
1-1.5 mg of linker was dissolved in 100 μL DMSO. Immediately after solvation, 5 μL was added to 995 μL phosphate buffer pH 7 containing 1000 equiv glucose. The mixture was heated to 37° C. and analysed continuously by LC-MS

[3] = tested on: lean rats; assay: In vivo scITT in lean rats; details: s.c., 5 U insulin-C18 or 0.5 U human insulin

Compound: COc1ccc(C(=O)N/N=C/CCOCc2ccccc2)cc1 [Linker 1, (E)-N′-(3-(benzyloxy)propylidene)-4-methoxybenzohydrazide]
- % linker-glucose ([1]; 1000 equiv glucose, 0 h): 0%
- % linker-glucose ([1]; 1000 equiv glucose, 1.5 h): 3%
- % linker-glucose ([1]; 1000 equiv glucose, 2 h): 3%
- % linker-glucose ([1]; 1000 equiv glucose, 3 h): 5%
- % linker-glucose ([1]; 1000 equiv glucose, 3.17 h): 4%
- % linker-glucose ([1]; 1000 equiv glucose, 3.5 h): 4%
- % linker-glucose ([1]; 1000 equiv glucose, 3.75 h): 4%
- % linker-glucose ([1]; 1000 equiv glucose, 4 h): 5%
- % linker-glucose ([1]; 1000 equiv glucose, 4.5 h): 6%
- % linker-glucose ([1]; 1000 equiv glucose, 4.75 h): 6%
- % linker-glucose ([1]; 1000 equiv glucose, 5 h): 6%
- % linker-glucose ([1]; 1000 equiv glucose, 5.5 h): 6%
- % linker-glucose ([1]; 1000 equiv glucose, 6 h): 9%
- % linker-glucose ([1]; 1000 equiv glucose, 7 h): 9%
- % linker-glucose ([1]; 1000 equiv glucose, 24 h): 29%
- % linker-glucose ([1]; 1000 equiv glucose, 48 h): 70%
- % linker-glucose ([1]; 5000 equiv glucose, 0 h): 0%
- % linker-glucose ([1]; 5000 equiv glucose, 0.75 h): 3%
- % linker-glucose ([1]; 5000 equiv glucose, 1 h): 6%
- % linker-glucose ([1]; 5000 equiv glucose, 1.25 h): 7%
- % linker-glucose ([1]; 5000 equiv glucose, 1.5 h): 10%
- % linker-glucose ([1]; 5000 equiv glucose, 1.75 h): 10%
- % linker-glucose ([1]; 5000 equiv glucose, 2 h): 14%
- % linker-glucose ([1]; 5000 equiv glucose, 2.5 h): 18%
- % linker-glucose ([1]; 5000 equiv glucose, 7 h): 49%

Compound: COc1ccc(C(=O)N/N=C/COCc2ccccc2)cc1 [Linker 14, (E)-N′-(2-(benzyloxy)ethylidene)-4-methoxybenzohydrazide]
- % linker-glucose ([1]; 1000 equiv glucose, 0 h): 0%
- % linker-glucose ([1]; 1000 equiv glucose, 24 h): 7%
- % linker-glucose ([1]; 1000 equiv glucose, 54 h): 11%
- % linker-glucose ([1]; 1000 equiv glucose, 72 h): 17%
- % linker-glucose ([1]; 5000 equiv glucose, 0 h): 0%
- % linker-glucose ([1]; 5000 equiv glucose, 24 h): 16%
- % linker-glucose ([1]; 5000 equiv glucose, 54 h): 30%
- % linker-glucose ([1]; 5000 equiv glucose, 72 h): 50%
- % linker-glucose ([1]; 10,000 equiv glucose, 0 h): 0%
- % linker-glucose ([1]; 10,000 equiv glucose, 6 h): 3%
- % linker-glucose ([1]; 10,000 equiv glucose, 24 h): 39%
- % linker-glucose ([1]; 10,000 equiv glucose, 54 h): 62%
- % linker-glucose ([1]; 10,000 equiv glucose, 72 h): 87%

Compound: COc1ccc(C(=O)N/N=C/COCc2ccccc2)c(O)c1 [Linker 15, (E)-N′-(2-(benzyloxy)ethylidene)-2-hydroxy-4-methoxybenzohydrazide]
- Linker-glucose observed [2]: ≤ 5 h
- % linker-glucose ([1]; 1000 equiv glucose, 0 h): 0%
- % linker-glucose ([1]; 1000 equiv glucose, 2 h): 1%
- % linker-glucose ([1]; 1000 equiv glucose, 4 h): 3%
- % linker-glucose ([1]; 1000 equiv glucose, 6 h): 5%
- % linker-glucose ([1]; 1000 equiv glucose, 24 h): 21%
- % linker-glucose ([1]; 1000 equiv glucose, 48 h): 35%
- % linker-glucose ([1]; 5000 equiv glucose, 0 h): 0%
- % linker-glucose ([1]; 5000 equiv glucose, 1 h): 2%
- % linker-glucose ([1]; 5000 equiv glucose, 2 h): 6%
- % linker-glucose ([1]; 5000 equiv glucose, 4 h): 12%
- % linker-glucose ([1]; 5000 equiv glucose, 6 h): 21%
- % linker-glucose ([1]; 5000 equiv glucose, 24 h): 68%
- % linker-glucose ([1]; 5000 equiv glucose, 48 h): 98%
- % linker-glucose ([1]; 10,000 equiv glucose, 0 h): 0%
- % linker-glucose ([1]; 10,000 equiv glucose, 1 h): 9%
- % linker-glucose ([1]; 10,000 equiv glucose, 2 h): 15%
- % linker-glucose ([1]; 10,000 equiv glucose, 4 h): 33%
- % linker-glucose ([1]; 10,000 equiv glucose, 6 h): 44%
- % linker-glucose ([1]; 10,000 equiv glucose, 24 h): 89%
- % linker-glucose ([1]; 10,000 equiv glucose, 48 h): 99%

Compound: Human insulin: human insulin, the unmodified peptide hormone used as comparator
- Blood glucose % of vehicle (±SEM) ([3]; 0 min (before)): 95 ± 3%
- Blood glucose % of vehicle (±SEM) ([3]; 60 min): 64 ± 4%
- Blood glucose % of vehicle (±SEM) ([3]; 120 min): 55 ± 6%
- Blood glucose % of vehicle (±SEM) ([3]; 180 min): 66 ± 7%
- Blood glucose % of vehicle (±SEM) ([3]; 240 min): 76 ± 4%
- Blood glucose % of vehicle (±SEM) ([3]; 300 min): 76 ± 4%

Source: patent US20190336610A1, “GLUCOSE-SENSITIVE PEPTIDE HORMONES” (GUBRA APS, priority 2016, published 2019)
